Assay results: ChEMBL document CHEMBL5316350, “Novel Pyrido[2',1':2,3]imidazo[4,5-c]quinoline Derivative Selectively Poisons Leishmania donovani Bisubunit Topoisomerase 1 to Inhibit the Antimony-Resistant Leishmania Infection in Vivo” (J Med Chem, 2023)
Calls of active or inactive are those of the source. The rule behind the calls is not given here.

Columns and labels:
Leishmania donovani [1] = assay: Antileishmanial activity against antimony resistant Leishmania donovani BHU575 promastigotes infected in BALB/c mouse assessed as reduction of amastigote burden in liver treated after 3 weeks of infection at 5 to 10 mg/kg, ip twice a week for 3 weeks by Giemsa staining stamp-smear based limiting dilution assay; assay type: functional, organism-based; conditions: dose 5-10 mg/kg
Leishmania donovani [2] = assay: Antileishmanial activity against Leishmania donovani Ag83 promastigotes infected in BALB/c mouse model of visceral leishmaniasis assessed as fold change in T-helper type 1 immunological evoke response in splenocytes by measuring decrease in TGF-beta level treated after 3 weeks of infection at 5 to 10 mg/kg, ip twice a week for 3 weeks by RT-PCR analysis; assay type: functional; conditions: dose 5-10 mg/kg
Leishmania donovani [3] = assay: Induction of cell cycle arrest in antimony resistant Leishmania donovani BHU575 promastigotes assessed as decrease in accumulation of cells in S phase at 5 uM measured after 6 hrs by PI staining based flow cytometry (reference value: 9.8%); assay type: functional; parameters: scale not given: the % may be the effect or the level left
Leishmania donovani [4] = assay: Induction of apoptosis in Leishmania donovani Ag83 promastigotes assessed as necrotic cells measured at 5 uM after 24 hrs by Annexin V-FITC/PI staining based flow cytometric analysis (reference value: 0.5%); assay type: functional
Leishmania donovani [5] = assay: Induction of apoptosis in Leishmania donovani Ag83 promastigotes assessed as viable cells measured at 5 uM after 6 hrs by Annexin V-FITC/PI staining based flow cytometric analysis (reference value: 99.4%); assay type: functional
Leishmania donovani [6] = assay: Induction of apoptosis in Leishmania donovani Ag83 promastigotes assessed as increase in apoptotic cells measured at 5 uM after 1.5 hrs by Annexin V-FITC/PI staining based flow cytometric analysis; assay type: functional, organism-based
MCF7 = assay: Induction of apoptosis in human MCF7 cells measured at 5 uM upto 24 hrs by Annexin V-FITC/PI staining based flow cytometric analysis; assay type: functional, cell-based
Leishmania donovani [7] = assay: Antileishmanial activity in Leishmania donovani BHU575 promastigotes assessed as TUNEL positive cells at 5 uM measured after 24 hrs by confocal microscopic analysis relative to control; assay type: functional
Leishmania donovani [8] = assay: Induction of apoptosis in Leishmania donovani Ag83 promastigotes assessed as viable cells measured at 5 uM after 12 hrs by Annexin V-FITC/PI staining based flow cytometric analysis (reference value: 99.4%); assay type: functional
DNA topoisomerase I = molecular target: T1, DNA topoisomerase I (Leishmania donovani (strain BPK282A1), UniProt E9BRC0); assay: Inhibition of Leishmania donovani Top1 assessed as relaxation of supercoiled pBluescript SK(+) DNA measured by agarose gel electrophoresis analysis
T1 sequence (E9BRC0 whole entry): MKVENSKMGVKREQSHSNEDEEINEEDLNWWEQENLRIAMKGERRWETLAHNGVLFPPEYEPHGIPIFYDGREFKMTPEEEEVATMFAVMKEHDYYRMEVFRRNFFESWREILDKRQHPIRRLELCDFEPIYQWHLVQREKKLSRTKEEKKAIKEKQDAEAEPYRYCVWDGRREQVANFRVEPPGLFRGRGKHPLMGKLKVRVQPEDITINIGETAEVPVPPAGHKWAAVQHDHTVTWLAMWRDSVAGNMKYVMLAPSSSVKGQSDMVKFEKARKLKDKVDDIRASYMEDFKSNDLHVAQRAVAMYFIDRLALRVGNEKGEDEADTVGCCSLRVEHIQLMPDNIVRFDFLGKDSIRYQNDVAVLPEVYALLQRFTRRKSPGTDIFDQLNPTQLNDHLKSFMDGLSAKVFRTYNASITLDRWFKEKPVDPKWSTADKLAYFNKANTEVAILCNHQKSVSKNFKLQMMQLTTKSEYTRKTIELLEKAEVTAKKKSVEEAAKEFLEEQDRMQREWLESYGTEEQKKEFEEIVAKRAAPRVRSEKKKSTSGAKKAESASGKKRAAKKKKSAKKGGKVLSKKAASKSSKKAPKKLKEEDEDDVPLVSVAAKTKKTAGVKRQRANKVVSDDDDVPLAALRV

Leishmania donovani [9] = assay: (§1) Antileishmanial activity against Leishmania donovani Ag83 promastigotes infected in BALB/c mouse assessed as reduction of amastigote burden by measuring parasite count in blood treated after 3 weeks of infection at 5 to 10 mg/kg, ip twice a week for 3 weeks by qPCR based kineto-plastid DNA; assay type: functional, organism-based; conditions: dose 5-10 mg/kg
Leishmania donovani [10] = assay: as §1, with “against antimony resistant” for “against”, “BHU575” for “Ag83”, “liver” for “blood”; assay type: functional, organism-based; conditions: dose 5-10 mg/kg
Leishmania donovani [11] = assay: Induction of apoptosis in […] Leishmania donovani Ag83 promastigotes assessed as DNA break accumulation measured at 5 uM after 15 mins by TUNEL staining based assay; assay type: functional, organism-based
[12] = molecular target: T2, DNA topoisomerase I (Leishmania donovani (strain BPK282A1)) (UniProt E9BRC0); assay: Inhibition of Leishmania donovani recombinant Top1 assessed as relaxation of supercoiled pBluescript SK(+) DNA incubated for 30 mins by agarose gel electrophoresis analysis; conditions: dose 0.5-10 µM
T2 sequence (whole entry): T1 sequence (E9BRC0 whole entry)

Leishmania donovani [13] = assay: Induction of apoptosis in Leishmania donovani Ag83 promastigotes assessed as late apoptotic cells measured at 5 uM after 6 hrs by Annexin V-FITC/PI staining based flow cytometric analysis (reference value: 0.1%); assay type: functional
Leishmania donovani [14] = assay: Induction of cell cycle arrest in Leishmania donovani Ag83 promastigotes assessed as decrease in accumulation of cells in G2/M phase at 5 uM measured after 6 hrs by PI staining based flow cytometry (reference value: 15.1 %); assay type: functional; parameters: scale not given: the % may be the effect or the level left
Leishmania donovani [15] = assay: Induction of apoptosis in Leishmania donovani Ag83 promastigotes assessed as late apoptotic cells measured at 5 uM after 12 hrs by Annexin V-FITC/PI staining based flow cytometric analysis (reference value: 0.1%); assay type: functional
[16] = Toxicity in BALB/c mouse infected with Leishmania donovani Ag83 promastigotes assessed as change in body weight treated after 3 weeks of infection at 5 to 10 mg/kg, ip twice a week for 3 weeks; assay type: organism-based; conditions: in vivo, dose 5-10 mg/kg
Leishmania donovani [17] = assay: Induction of apoptosis in Leishmania donovani Ag83 promastigotes assessed as early apoptotic cells measured at 5 uM after 12 hrs by Annexin V-FITC/PI staining based flow cytometric analysis (reference value: 0.00%); assay type: functional
[18] = molecular target: T2, DNA topoisomerase I (Leishmania donovani (strain BPK282A1)); assay: Binding affinity to topoisomerase I in Leishmania donovani Ag83 whole cell lysate assessed as stabilization of cleavage complex at 5 to 50 uM measured after 30 mins; assay type: subcellular; conditions: dose 5-50 µM
Leishmania donovani [19] = assay: Antileishmanial activity against antimony resistant Leishmania donovani BHU575 promastigotes infected in BALB/c mouse assessed as reduction of macrophage at 10 uM measured after 96 hrs infection by propidium iodide staining analysis relative to control; assay type: functional; parameters: scale not given: the % may be the effect or the level left
Leishmania donovani [20] = assay: as §1, with “against antimony resistant” for “against”, “BHU575” for “Ag83”; assay type: functional, organism-based; conditions: dose 5-10 mg/kg

In the case of `COc1cc(-c2nc3ccccc3c3nc4ccccn4c23)cc(OC)c1OC`, the Activity (Leishmania donovani [1]) is reported as “Active”, the “fold change (FC)” value (Leishmania donovani [2]) is reported as 2 and the Activity (Leishmania donovani [3]) is reported as 24.5%. The Activity (Leishmania donovani [4]) was 23.1%, the Activity (Leishmania donovani [5]) was 5% and the Activity (Leishmania donovani [6]) was “Active”. The Activity (MCF7) was “inactive”, the Activity (Leishmania donovani [7]) was 85% and the Activity (Leishmania donovani [8]) was 2%. For the same compound, the IC50 (DNA topoisomerase I) was 3.75 µM, the Activity (Leishmania donovani [9]) was “Active” and the Activity (Leishmania donovani [10]) was “Active”. The Activity (Leishmania donovani [11]) was “inactive”, the inhibition [12] was “Dose-Dependent Effect” and the Activity (Leishmania donovani [13]) was 52.5%. The Activity (Leishmania donovani [14]) was 27.7%, the Activity (Leishmania donovani [15]) was 61% and the Activity [16] was “Non-Toxic”. The Activity (Leishmania donovani [17]) was 11.4%, the Activity [18] was “Active” and the Activity (Leishmania donovani [19]) was 90%. For the same compound, the Activity (Leishmania donovani [20]) was “Active”.
